Laboratory results reported in patent publication US11602534B2, “Pyrimidine derivative kinase inhibitors” (HEFEI INSTITUTES OF PHYSICAL SCIENCE, CHINESE ACADEMY OF …, priority 2017, dated 2023).

What was measured:
[1] = tested on: protein kinase FLT3; test: Phosphorylation of FLT3 in AML cells; assay type: cell-based, human; conditions: MV-4-11, MOLM-13 and MOLM-14 cell lines; 4 hours; compounds 0.01-3 μM, PKC412 1 μM
Method: (§1) In cells having FLT3 gene and/or FLT3/ITD mutant gene, specifically, human acute myeloid leukemia cells MV4-11 (expressing FLT3/ITD mutant gene) cell strain and human acute myeloid leukemia cells MOLM-13 and MOLM-14 (expressing FLT3/ITD mutant gene and wild-type FLT3 gene) cell strains, Compound 5, Compound 135 and a FLT3 kinase inhibitor, PKC412 (purchased from Hao Yuan Chemexpress Company, Shanghai), which was used as the control, were evaluated for their effects in cells on phosphorylation of FLT3 and FLT3/ITD protein kinase and phosphorylation of the closely-related STATS protein which is downstream of FLT3 signaling pathways, as well as their effects on phosphorylation of other relevant protein kinases such as ERK and AKT, by assaying a number of cellular biochemical and functional endpoints. In addition, the effects on C-Myc and phosphorylation of the transcription factor NF-κB subunit p65 was also examined (FIGS. 1a-1f). Compound 5 and Compound 135 at different concentrations (0 μM, 0.01 μM, 0.03 μM, 0.1 μM, 0.3 μM, 1 μM, 3 μM in DMSO) and the FLT3 kinase inhibitor PKC412 (1 μM in DMSO) were used to treat acute myeloid leukemia cells MV-4-11, MOLM13 and MOLM-14 that had FLT3 and/or FLT3/ITD gene for 4 hours, respectively, and then the samples were collected. The effects of the compounds on the phosphorylation of proteins such as STATS, C-Myc, ERK, NF-κB p65, AKT in cells were tested (FIGS. 1a-1f).

[2] = Phosphorylation of STATS downstream of FLT3 in AML cells; assay type: cell-based, human; conditions: MV-4-11, MOLM13 and MOLM-14; 4 hours; compounds 0.01-3 μM, PKC412 1 μM
Method: as §1

[3] = tested on: C-Myc; test: Degradation of C-Myc in AML cells; assay type: cell-based, human; conditions: MV-4-11, MOLM13 and MOLM-14; 4 hours; compounds 0.01-3 μM, PKC412 1 μM
Method: as §1

[4] = tested on: BaF3; test: Proliferation of BaF3 cells, CCK8 cell viability assay; assay type: cell-based; conditions: Mus musculus, 72 hours
Outline: (§2)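 Murine BaF3 cells made IL-3-independent by retroviral transduction of human kinase domains fused to N-terminal TEL or TPR fragments; parental BaF3 included. Living cells quantified by CCK8 (dehydrogenase activity) read-out, giving GI50 in μM.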

[5] = tested on: Tel-cKit-BaF3; test: Proliferation of Tel-cKit-BaF3 cells, CCK8 cell viability assay; assay type: cell-based, mouse; conditions: Mus musculus; 72 hours, CCK8; stably expressing cKIT kinase
Outline: (§3)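 Parental murine BaF3 and IL-3-independent BaF3 transformants driven by TEL–cKIT, TEL–PDGFRα or TEL–PDGFRβ, with human kinase domains stably transduced by retrovirus. CCK8 dehydrogenase read-out gives GI50 (μM).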

[6] = tested on: Tel-cKit/T670I-BaF3; test: Proliferation of Tel-cKit/T670I-BaF3 cells, CCK8 cell viability assay; assay type: cell-based; conditions: Mus musculus, 72 hours, stably expressing cKIT/T670I
Outline: as §3

[7] = tested on: Tel-FLT3-BaF3; test: Proliferation of Tel-FLT3-BaF3 cells, CCK8 cell viability assay; assay type: cell-based; conditions: Mus musculus, 72 hours, stably expressing FLT3 kinase
Outline: as §2

[8] = tested on: FLT3-ITD-BaF3; test: Proliferation of FLT3-ITD-BaF3 cells, CCK8 cell viability assay; assay type: cell-based; conditions: Mus musculus, 72 hours, stably expressing FLT3/ITD
Outline: as §2

[9] = tested on: TEL-PDGFRα-BaF3; test: Proliferation of TEL-PDGFRα-BaF3 cells, CCK8 cell viability assay; assay type: cell-based; conditions: Mus musculus, 72 hours, stably expressing PDGFRα kinase
Outline: as §3

[10] = tested on: TEL-PDGFRβ-BaF3; test: Proliferation of TEL-PDGFRβ-BaF3 cells, CCK8 cell viability assay; assay type: cell-based; conditions: Mus musculus, 72 hours, stably expressing PDGFRβ kinase
Outline: as §3

[11] = tested on: TEL-VEGFR2-BaF3; test: Proliferation of TEL-VEGFR2-BaF3 cells, CCK8 cell viability assay; assay type: cell-based; conditions: Mus musculus, 72 hours, stably expressing VEGFR2 kinase
Outline: as §2

[12] = tested on: human acute myeloid leukemia cell strain MOLM-13; test: Proliferation of MOLM-13 cells, Cell Titer-Glo; assay type: cell-based; conditions: summary of Table 3
Method: (§4) In addition, in this example the inhibitory activity of preferred compounds (Compound 5 and Compound 135) was tested against the following cell strains: human acute myeloid leukemia cell strain MV4-11 (expressing FLT3/ITD mutant gene), human acute myeloid leukemia cell strain MOLM-13 (expressing FLT3/ITD mutant gene and wild-type FLT3 gene), human acute myeloid leukemia cell strain MOLM-14 (expressing FLT3/ITD mutant gene and wild-type FLT3 gene), human acute myeloid leukemia cell strain OCI-AML-3 (expressing FLT3 A680V mutant gene), human chronic lymphatic leukemia cell strain MEC-1, Chinese hamster lung (CHL) cells, Chinese hamster ovary (CHO) cells, wherein all the cells were purchased from ATCC. In the example the compounds of the present invention were added respectively into the above cells at different concentrations (0.000508 μM, 0.00152 μM, 0.00457 μM, 0.0137 μM, 0.0411 μM, 0.123 μM, 0.370 μM, 1.11 μM, 3.33 μM, 10 μM in DMSO) and the cells were incubated for 72 hours. The number of viable cells was determined by quantification of ATP in living cells using Cell Titer-Glo® (Promega, the USA) Luminescent Cell Viability Assay kit and thereby GI50 was calculated.

[13] = tested on: human acute myeloid leukemia cell strain MV4-11; test: Proliferation of MV4-11 cells, Cell Titer-Glo; assay type: cell-based; conditions: summary of Table 3
Method: as §4

[14] = tested on: human acute myeloid leukemia cell strain MOLM-14; test: Proliferation of MOLM-14 cells, Cell Titer-Glo; assay type: cell-based; conditions: summary of Table 3
Method: as §4

GI50 [4] [nM] | GI50 [5] [nM] | GI50 [6] [nM] | GI50 [7] [nM] | GI50 [8] [nM] | GI50 [9] [nM] | GI50 [10] [nM] | GI50 [11] [nM] | Structure (SMILES) | phosphorylation of the protein kinase FLT3 [1] | phosphorylation of STATS [2] | degradation of C-Myc [3] | inhibition of MOLM13 (in words) [12] | inhibition of MV4-11 (in words) [13] | inhibition of MOLM14 (in words) [14]
 |  |  |  |  |  |  |  | CO[C@@H]1[C@H](N(C)C(=O)c2ccccc2)C[C@H]2O[C@]1(C)n1c3ccccc3c3c4c(c5c6ccccc6n2c5c31)C(=O)NC4 [PKC412, reference compound] | strongly inhibited | strongly inhibited | strongly inhibited |  |  | 
> 10000 | 1420 | 8900 | 325 | 109 | 7 | 22 | 1090 | CC(=O)Nc1cc(Oc2ccc(NC(=O)Cc3ccc(C(F)(F)F)cc3C(F)(F)F)cc2)ncn1 [Example 3, N-[4-(6-acetylamino-pyrimidin-4-yloxy)-phenyl]-2-(2,4-bis-trifluoromethyl-phenyl)-acetamide] |  |  |  | selectively and strongly inhibited | selectively and strongly inhibited | selectively and strongly inhibited
